# Values of other authors as cited in PMC2785207 (The Journal of Biological Chemistry, 2009).
# Columns and labels:
# CobB = details: E. coli sirtuin CobB; ref [17], [18]
# Sir2 = details: reaction product; reacts with the O-alkylamidate to regenerate NAD+ and acetyl lysine; ref [14], [15]
SMILES,ribosylation by CobB (CobB),inhibition of the Sir2 deacetylation reaction (Sir2)
"Cc1cc2nc[nH]c2cc1C [5,6-dimethylbenzimidazole]",ribosylates,–
NC(=O)c1cccnc1 [nicotinamide],–,inhibited
